The nature of data set [1]: Dose range-finding oral study in cynomolgus monkeys. The format is in vivo. The note with it: 500 mg/kg/day oral for 4 days. How it is done:
The objective of this study was to determine a maximum tolerated dose (MTD) and a no observable adverse effect level (NOAEL) for the endpoints examined following daily oral gavage of SB 44 for 4 consecutive days to cynomolgus monkeys. Information from this study was used to design subsequent dose-ranging toxicity studies and determine the suitability of the proposed human dose.
SB 44 was administered orally to cynomolgus monkeys consecutively for 4 days at 500 mg/kg/day.

A further data set has as its system Vero. The experiment in a line: MTT cytotoxicity assay, Vero cells. The format is cell-based. The following applies: 24-hour incubation. From the text: (§1) SDS was used as a positive cytotoxic control.
The test system of data set [2] is peripheral blood mononuclear cells (PBMCs). In words: Multiplex assay for 28 cytokines in PBMCs. Type of data set: cell-based, human. The following applies: up to 50 μM.
A further data set relates to M. tuberculosis. Details: species or system C57Bl/6 mice. The note with it: mouse, in vivo.
A further data set concerns the target T1, RIG-I (Homo sapiens, UniProt O95786).
T1 construct: expressed in transfected cells; host or cells: HEK 293
T1 sequence (O95786 1-925): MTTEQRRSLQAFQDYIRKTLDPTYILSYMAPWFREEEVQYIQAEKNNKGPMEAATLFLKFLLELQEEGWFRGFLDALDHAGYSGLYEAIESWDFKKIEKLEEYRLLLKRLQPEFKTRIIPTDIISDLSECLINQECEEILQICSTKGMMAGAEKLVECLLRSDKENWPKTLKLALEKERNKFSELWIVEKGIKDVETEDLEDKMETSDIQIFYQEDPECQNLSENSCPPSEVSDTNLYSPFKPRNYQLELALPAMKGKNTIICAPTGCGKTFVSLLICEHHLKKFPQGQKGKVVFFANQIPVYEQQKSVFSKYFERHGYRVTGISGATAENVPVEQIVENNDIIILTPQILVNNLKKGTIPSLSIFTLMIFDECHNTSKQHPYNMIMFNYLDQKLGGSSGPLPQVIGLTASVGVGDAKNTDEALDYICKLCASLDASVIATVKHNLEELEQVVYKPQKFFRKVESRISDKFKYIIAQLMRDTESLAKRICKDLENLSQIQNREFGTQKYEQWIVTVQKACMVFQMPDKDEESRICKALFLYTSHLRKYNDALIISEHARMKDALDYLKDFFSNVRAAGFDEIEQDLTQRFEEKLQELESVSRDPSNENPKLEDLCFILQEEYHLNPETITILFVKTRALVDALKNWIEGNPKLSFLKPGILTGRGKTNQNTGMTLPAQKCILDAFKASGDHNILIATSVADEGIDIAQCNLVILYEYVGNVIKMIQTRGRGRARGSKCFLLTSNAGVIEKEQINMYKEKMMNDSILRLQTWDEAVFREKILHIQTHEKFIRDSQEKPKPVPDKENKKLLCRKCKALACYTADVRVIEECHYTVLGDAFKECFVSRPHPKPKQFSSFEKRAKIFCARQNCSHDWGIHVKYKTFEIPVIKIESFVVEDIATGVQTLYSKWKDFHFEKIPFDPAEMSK
In words: IRF3-luciferase assay in HEK 293 cells transfected with RIGI. The note with it: 100 or 500 nM; 8 h or 16 h incubation. The format is cell-based. The protocol: HEK 293 cells were transfected with RIGI, pcDNA and IRF3-luciferase. The cells were then incubated with SB 44 (100 or 500 nM). Following 8 h or 16 h incubation, Luciferase activity was measured as described previously. The Luciferase assay results are presented as mean±S.D. from three independent experiments.

In the next data set the test system is RIG-I and NOD2. The format is cell-based. The note with it: receptor-deficient cells, exogenous RIG-I and NOD2.
The test system of a further data set is MHC-II. The format is cell-based, mouse.
The next data set concerns NF-kB. In words: NF-kB-luciferase assay in HEK 293 cells transfected with RIGI and Nod2. Type of data set: cell-based. The note with it: 10 μM; 12 h incubation. How it is done: HEK 293 cells were transfected with RIGI, pcDNA, Nod2 and NF-kB-luciferase. The cells were then incubated with SB 44 (10 μM). Following 12 h incubation, Luciferase activity was measured as described previously. The Luciferase assay results are presented as mean±S.D. from three independent experiments.

A further data set has as its system phosphorylated IRF3. In words: Western blot for phosphorylated IRF3 in human lung epithelial A549 cells. Type of data set: cell-based. The following applies: 500 nM, Western blotting. The protocol: Human lung epithelial A549 cells were incubated with either DMSO or SB 44 (500 nM). At indicated post-treatment time-points, the cell lysate was subjected to Western blotting with antibody specific for phosphorylated IRF3 (phospho-IRF3) (Cell signaling).

Data set [3] deals with Madin-Darby bovine kidney (MDBK). In words: MTT cytotoxicity assay, MDBK cells. Type of data set: cell-based. The note with it: 24-hour incubation.
From the text: as §1

For another data set, the system named is PBMCs. The format is cell-based.
The test system of another data set is bacterial tester strains. The experiment in a line: Bacterial mutation test (screening version, pre-incubation). The note with it: up to 5000 μg/plate. The protocol: Study design: The test was performed on one occasion only. A subset of the standard tester strains (list strains) was used to evaluate the genotoxic potential of the test article.
The test article was formulated in dimethyl sulfoxide (DMSO) and tested at a maximum concentration of 5000 μg/plate (the standard limit dose for this assay) together with approximate half-log dilutions using the pre-incubation version of the bacterial mutation test. The absence of colonies on sterility check plates confirmed the absence of microbial contamination. The mean revertant colony counts for the vehicle controls were close to or within the laboratory historical control data. Appropriate positive control compounds (+/−S9 mix) induced increases in revertant colony numbers at least twice the concurrent vehicle control levels with the appropriate bacterial strain (1.5× for strain TA 100), confirming the sensitivity of the test system and activity of the S9 mix. […] No precipitation was observed.

Molecules are shown by their SMILES. Entries after “also recorded” stand apart in the source; their conditions may differ.

`COC1C(OP(=O)(OCC2OC(n3cnc4c(N)ncnc43)CC2O)SCOC(=O)OC(C)C)C(CO)OC1n1ccc(=O)[nH]c1=O` (mixture of isomers) [SB 44]: in data set [1], the “elevation of ALT” value is on record as “about 2 fold”, the “elevation of AST” value is “about 6 fold” and the tolerability result is “clinically well tolerated”. In addition, in the data set on Vero, the CC50 is above 1000 µM. In addition, the “cytokine induction in human PBMC cultures” value in [2] was “did not cause cytokine induction”. Moreover, in the data set with M. tuberculosis, the “antigen specific CD8 / memory T cells in lungs of re-challenged mice” value was “boost the magnitude of antigen specific memory T cells; also recorded: induces a robust expansion of antigen specific CD8 T cells”, the “protection against re-challenge of tuberculosis” value is given as “induce protection against re-challenge of tuberculosis in mice” and the “recall response against re-challenge with tuberculosis” value was “retain the ability to mount a better recall response”. Further, on RIG-I, the “IRF3 induction following activation of RIG-I” value was “IRF3 induction following activation of RIG-I”. In the data set on RIG-I and NOD2, the “enhancement of ISG-56 expression over that induced by PolyI-PolyC” value is listed as 2 fold. Further, the “surface expression of MHC-II” value in the data set on MHC-II is listed as “increase MHC-II in MΦs; also recorded: enhances surface expression of MHC-II”. In addition, the “induction of NF-kB activity via RIGI and Nod2 activation” value with NF-kB was “induction of NF-kB activity; also recorded: induction of the transcription factor, NF-KB”. Also, in the data set with phosphorylated IRF3, the “activated IRF3 (phospho-IRF3) detection” value was “detection of activated IRF3”. Besides, the CC50 in data set [3] was above 1000 µM. The “IFN production in the presence of BCG” value in the data set with PBMCs is given as “modest augmentation of IFN production”. For the same compound, the “toxicity to the bacteria (background lawn)” value with bacterial tester strains is “non-toxic to the bacteria at the levels tested”. Moreover, in the data set on bacterial tester strains (absence or presence of S9 mix), the “genotoxic activity (revertant colony counts)” value is “did not show any evidence of genotoxic activity”.

The values are drawn from patent US10391166B2, “Short oligonucleotides as vaccine adjuvants and therapeutic agents” (priority 2013, dated 2019).
